{"source": "paper PMC11259710", "about": "“Distinct roles of the major binding residues in the cation-binding pocket of the melibiose transporter MelB” (The Journal of Biological Chemistry, 2024)", "key": {"WT MelBSt [1]": {"molecular_target": "T1, WT MelBSt (Salmonella typhimurium, UniProt P30878)", "T1 construct": "His10 (C); made in house; host or cells: E. coli DW2", "experiment": "ITC ligand-binding assay, purified WT MelBSt", "set-up": "species or system Salmonella enterica serovar Typhimurium", "conditions": "for Kd: ITC, read-out: Kd of melibiose binding", "method": "All ITC ligand-binding assays were performed with the TA Instruments (Nano-ITC device) as described ([15]), which yields the exothermic binding as a positive peak. In a typical experiment, the titrand (MelBSt) placed in the ITC Sample Cell was titrated with the specified titrant Na^+, Li^+, melibiose, or α-NPG (placed in the Syringe) in the assay buffer by an incremental injection of 2-μL aliquots at an interval of 300 s at a constant stirring rate of 250 rpm (nano-ITC). MelBSt protein samples were buffer-matched to the assay buffer by dialysis. For measuring Na^+ or Li^+ binding, 100 mM choline chloride was supplemented into the Na^+-free buffer.\n(§1) All samples were degassed using a TA Instruments Degassing Station (model 6326) for 15 min. During the titration, the heat changes were collected at 25 °C, and data processing was performed with the NanoAnalyze (version 3.7.5 software) provided with the instrument. The normalized heat changes were subtracted from the heat of dilution elicited by the last few injections, where no further binding occurred, and the corrected heat changes were plotted against the mole ratio of titrant versus titrand. The binding association constant (Ka) values were obtained by fitting the data using the one-site independent-binding model included in the NanoAnalyze software (version 3.7.5)."}, "D55C MelBSt mutant": {"molecular_target": "T2, D55C MelBSt mutant (Salmonella typhimurium, UniProt P30878, D55C)", "T2 construct": "His10 (C); made in house; host or cells: E. coli DW2", "type": "binding, Salmonella enterica serovar Typhimurium", "conditions": "for Kd: ITC 25 °C; for Cation binding by ITC: 40 mM NaCl or LiCl titrant, absence or presence of saturating melibiose", "method": "All ITC ligand-binding assays were performed with the TA Instruments (Nano-ITC device) as described ([15]), which yields the exothermic binding as a positive peak. […] MelBSt protein samples were buffer-matched to the assay buffer by dialysis.\nas §1"}, "WT MelBSt [2]": {"molecular_target": "T1, WT MelBSt", "conditions": "cited from earlier work"}, "Asp59": {"molecular_target": "Asp59 (UniProt position 59, WDAINDPIMGW)", "experiment": "ITC", "conditions": "cited from earlier work"}, "[3]": {"test_system": "D55C MelBSt expressed in E. coli DW2 cells", "experiment": "[3H]melibiose transport assay in intact E. coli DW2 cells, CCCP effect, D55C MelBSt", "type": "cell-based, Salmonella enterica serovar Typhimurium", "conditions": "D55C mutant", "method": "(§2) E. coli DW2 cells transformed with a given plasmid were grown in Luria-Bertani (LB) broth with 100 mg/L ampicillin in a 37 °C shaker. The overnight cultures were diluted by 5% to fresh LB broth with 0.5% glycerol and 100 mg/L ampicillin and shaken at 30 °C for 5 h. The cells were washed with 50-ml 100 mM KPi, pH 7.5 three times, followed by washing with the assay buffer (100 mM KPi, pH 7.5, 10 mM MgSO4). The cell pellets were resuspended and adjusted to A420 = 10 (∼0.7 mg proteins/ml) with the assay buffer. The transport assay was performed at 0.4 mM [^3H]melibiose (specific activity of 10 mCi/mmol) in the absence of Na^+ and Li^+ or the presence of Na^+ or Li^+ as described ([4], [35]) to test the three transport model coupling to H^+, Na^+, or Li^+, respectively. The transport time courses were carried out by quenching the cells at zero, 5 s, 10 s, 30 s, 1 m, 2 m, 5 m, 10 m, and 30 m by dilution and fast filtration. The filters were subjected to radioactivity measurements using a liquid scintillation counter.\n(§3) The CCCP effect on the transport activity at varied pH conditions in the absence of Na^+ and Li^+ was conducted by incubating the extensively washed Na^+-free, Li^+-free cells with 10 μM CCCP for 10 min prior to the transport assay.\n(§4) E. coli DW2 cells expressing the WT MelBSt, D55C, or D59C mutants were prepared as described above. […]"}, "[4]": {"test_system": "WT MelBSt expressed in E. coli DW2 cells", "experiment": "[3H]melibiose transport assay in intact E. coli DW2 cells, CCCP effect, WT MelBSt", "type": "cell-based, Salmonella enterica serovar Typhimurium", "method": "as §2, §3, §4"}, "[5]": {"conditions": "pH 7.5, 100 mM Na+ vs no Na+, from Kd values of ref [8]"}, "[6]": {"conditions": "10 μM CCCP, all tested external pH conditions, zero, 2 m, 10 m"}, "[7]": {"conditions": "cells pre-incubated with 10 μM CCCP, 0.4 mM melibiose, no Na+ and Li+, pH 7.5"}}, "note": "Like-named read-outs stand apart in the source and are kept apart here."}
{"compound": "O=[N+]([O-])c1ccc(O[C@H]2O[C@H](CO)[C@H](O)[C@H](O)[C@H]2O)cc1", "note": "[α-NPG, 4-nitrophenyl-α-D-galactopyranoside]", "values": [{"measurement": "Affinity change of α-NPG with Na+", "setting": "WT MelBSt [1]; [5]", "result": "+ 1.68-fold"}, {"measurement": "Kd", "setting": "D55C MelBSt mutant; pH 7.5, 100 mM Na+, read-out: Kd of α-NPG binding", "result": "13.5 ± 1.38", "unit": "µM"}, {"measurement": "Kd", "setting": "D55C MelBSt mutant; pH 7.5, no Na+, read-out: Kd of α-NPG binding", "result": "15.1 ± 1.86", "unit": "µM"}, {"measurement": "Kd", "setting": "WT MelBSt [2]; WT MelBSt, pH 7.5, 100 mM Na+, ITC, ref [8], read-out: Kd of α-NPG binding", "result": "25.7 ± 4.42", "unit": "µM"}, {"measurement": "Kd", "setting": "WT MelBSt [2]; WT MelBSt, pH 7.5, no Na+, ITC, ref [8], read-out: Kd of α-NPG binding", "result": "43.2 ± 0.62", "unit": "µM"}]}
{"compound": "[H+]", "note": "[H^+]", "values": [{"measurement": "absolute dissociation constant for H+ (pKa value)", "setting": "WT MelBSt [2]; absence of melibiose, ref [15]", "result": 6.25}, {"measurement": "Kd", "setting": "WT MelBSt [2]; absence of melibiose, ref [15], read-out: absolute KD(H+)", "result": 0.56, "unit": "µM"}, {"measurement": "Cooperativity number", "setting": "WT MelBSt [2]; melibiose and H+, based on the effect of sugar on the H+ affinity, ref [15]", "result": "less than 2"}, {"measurement": "absolute dissociation constant for H+ (pKa value)", "setting": "WT MelBSt [2]; presence of melibiose, ref [15]", "result": 6.5}, {"measurement": "Kd", "setting": "WT MelBSt [2]; presence of melibiose, ref [15], read-out: absolute KD(H+)", "result": 0.26, "unit": "µM"}]}
{"compound": "[Na+]", "note": "[Na^+]", "values": [{"measurement": "Cation binding by ITC", "setting": "D55C MelBSt mutant", "result": "eliminated the binding"}, {"measurement": "Cooperativity number (ratio of Kd values of melibiose and cation in absence or presence of the other)", "setting": "WT MelBSt [2]; melibiose and Na+, ref [15]", "result": "approximately 8"}]}
{"compound": "Melibiose permease MelB (MelBSt) (Salmonella enterica serovar Typhimurium)", "values": [{"measurement": "pKa", "setting": "Asp59; Melibiose present (per the Introduction). The Discussion sentence does not specify the sugar state.", "result": "approximately 6.5"}, {"measurement": "pKa", "setting": "Asp59; No melibiose, no Na+/Li+ bound", "result": 6.25}]}
{"compound": "[Li+]", "note": "[Li^+]", "values": [{"measurement": "Cation binding by ITC", "setting": "D55C MelBSt mutant", "result": "eliminated the binding"}, {"measurement": "Cooperativity number (ratio of Kd values of melibiose and cation in absence or presence of the other)", "setting": "WT MelBSt [2]; melibiose and Li+, ref [6]", "result": "~5"}]}
{"compound": "OC[C@H]1O[C@H](OCC2O[C@@H](O)[C@H](O)[C@@H](O)[C@@H]2O)[C@H](O)[C@@H](O)[C@H]1O", "note": "(stereo partly drawn) [Melibiose, melibiose]", "values": [{"measurement": "Kd", "setting": "WT MelBSt [1]; pH 6.25, Na+-free buffer", "result": "6190 ± 590", "unit": "µM"}, {"measurement": "Affinity change of melibiose with pH", "setting": "WT MelBSt [1]; pH 6.25 vs pH 8.5, no Na+", "result": "+1.37-fold"}, {"measurement": "Affinity change of melibiose with Na+", "setting": "WT MelBSt [1]; [5]", "result": "+8.51-fold"}, {"measurement": "Affinity change of melibiose with Na+", "setting": "WT MelBSt [1]; pH 7.5, 100 mM Na+ vs no Na+, from Kd values of ref [8], listed as melibiose", "result": 8.51, "unit": "fold"}, {"measurement": "Kd", "setting": "WT MelBSt [1]; pH 8.5, Na+-free buffer", "result": "8500 ± 210", "unit": "µM"}, {"measurement": "Affinity change of melibiose with Na+", "setting": "D55C MelBSt mutant; pH 7.5, 100 mM Na+ vs no Na+", "result": "+1.14-fold"}, {"measurement": "Kd", "setting": "D55C MelBSt mutant; pH 7.5, 100 mM Na+, read-out: Kd of melibiose binding", "result": "5090 ± 150", "unit": "µM"}, {"measurement": "Kd", "setting": "D55C MelBSt mutant; pH 7.5, no Na+, read-out: Kd of melibiose binding", "result": "5820 ± 460", "unit": "µM"}, {"measurement": "Kd", "setting": "WT MelBSt [2]; WT MelBSt, pH 7.5, 100 mM Na+, ITC 25 °C, ref [8], read-out: Kd of melibiose binding", "result": "1090 ± 60", "unit": "µM"}, {"measurement": "Kd", "setting": "WT MelBSt [2]; WT MelBSt, pH 7.5, no Na+, ITC 25 °C, ref [8], read-out: Kd of melibiose binding", "result": "9280 ± 230", "unit": "µM"}]}
{"compound": "N#CC(C#N)=NNc1cccc(Cl)c1", "note": "[CCCP, carbonyl cyanide m-chlorophenylhydrazone]", "values": [{"measurement": "CCCP effect on melibiose transport at varied external pH", "setting": "[3]; [6]", "result": "completely abolished"}, {"measurement": "CCCP effect on H+-coupled melibiose transport activity", "setting": "[3]; [7]", "result": "completely inhibited"}, {"measurement": "CCCP effect on melibiose transport at varied external pH", "setting": "[4]; [6]", "result": "completely abolished"}, {"measurement": "CCCP effect on H+-coupled melibiose transport activity", "setting": "[4]; [7]", "result": "completely inhibited"}]}
